Test results as given in the NIST ThermoML archive (doi:10.1016/j.jct.2010.04.013).
± gives the expanded uncertainty stated by the source.

Assay: mn = molality of the nth substance listed, in mol/kg
Settings: 101 kPa, Liquid; for mass density: Vibrating tube method; for speed of sound: Pulse-echo method

O=S(=O)([O-])C(F)(F)F.[Na+] [sodium trifluoromethanesulfonate] + C[S+](C)[O-]
Settings | mass density, 293.15 K [kg/m3] | mass density, 298.15 K [kg/m3] | mass density, 303.15 K [kg/m3] | mass density, 313.15 K [kg/m3] | mass density, 323.15 K [kg/m3] | mass density, 333.15 K [kg/m3] | speed of sound, 298.15 K [m/s]
m1 = 0.02641 | 1102.59 ± 0.18 | 1097.57 ± 0.18 | 1092.55 ± 0.18 | 1082.51 ± 0.18 | 1072.47 ± 0.6 | 1062.44 ± 0.57 | –
m1 = 0.0331 | 1103.2 ± 0.18 | 1098.17 ± 0.18 | 1093.52 ± 0.18 | 1083.11 ± 0.18 | 1073.08 ± 0.17 | 1063.05 ± 0.17 | –
m1 = 0.04651 | 1104.41 ± 0.18 | 1099.38 ± 0.18 | 1094.37 ± 0.17 | 1084.33 ± 0.18 | 1074.31 ± 0.17 | 1064.27 ± 0.17 | 1482.7 ± 1.3
m1 = 0.06041 | 1105.66 ± 0.18 | 1100.64 ± 0.18 | 1095.62 ± 0.18 | 1085.59 ± 0.18 | 1075.56 ± 0.18 | 1065.53 ± 0.17 | 1482.2 ± 1.3
m1 = 0.0788 | 1107.34 ± 0.19 | 1102.31 ± 0.18 | 1097.29 ± 0.18 | 1087.27 ± 0.18 | 1077.24 ± 0.18 | 1067.21 ± 0.17 | 1481.6 ± 1.3
m1 = 0.09603 | 1108.91 ± 0.19 | 1103.88 ± 0.18 | 1098.86 ± 0.18 | 1088.84 ± 0.18 | 1078.81 ± 0.18 | 1068.79 ± 0.17 | 1481 ± 1.3
m1 = 0.1218 | 1111.26 ± 0.19 | 1106.23 ± 0.19 | 1101.22 ± 0.19 | 1091.19 ± 0.18 | 1081.17 ± 0.18 | 1071.16 ± 0.18 | 1480.1 ± 1.3
m1 = 0.1568 | 1114.49 ± 0.19 | 1109.45 ± 0.19 | 1104.45 ± 0.19 | 1094.42 ± 0.18 | 1084.4 ± 0.18 | 1074.39 ± 0.18 | 1479 ± 1.3
m1 = 0.1917 | 1117.71 ± 0.2 | 1112.68 ± 0.19 | 1107.66 ± 0.19 | 1097.64 ± 0.19 | 1087.62 ± 0.18 | 1077.62 ± 0.18 | 1477.6 ± 1.3
m1 = 0.2205 | 1120.39 ± 0.2 | 1115.36 ± 0.2 | 1110.33 ± 0.19 | 1100.32 ± 0.19 | 1090.31 ± 0.19 | 1080.3 ± 0.18 | 1476.5 ± 1.3
m1 = 0.2625 | 1124.33 ± 0.2 | 1119.3 ± 0.2 | 1114.27 ± 0.2 | 1104.24 ± 0.19 | 1094.22 ± 0.19 | 1084.21 ± 0.19 | 1475 ± 1.3
m1 = 0.2925 | – | – | – | – | – | – | 1473.9 ± 1.3

[O-][Cl+3]([O-])([O-])[O-].[O-][Cl+3]([O-])([O-])[O-].[Sr+2] [strontium perchlorate] + CO
Settings | mass density, 283.15 K [kg/m3] | mass density, 288.15 K [kg/m3] | mass density, 293.15 K [kg/m3] | mass density, 298.15 K [kg/m3] | mass density, 303.15 K [kg/m3] | mass density, 308.15 K [kg/m3] | mass density, 313.15 K [kg/m3] | speed of sound, 298.15 K [m/s]
m1 = 0.06323 | 814.327 ± 0.26 | 809.615 ± 0.26 | 804.898 ± 0.26 | 800.168 ± 0.26 | 795.42 ± 0.26 | 790.66 ± 0.26 | 785.866 ± 0.26 | 1108 ± 1.2
m1 = 0.07864 | 817.708 ± 0.26 | 812.989 ± 0.26 | 808.269 ± 0.26 | 803.533 ± 0.26 | 798.779 ± 0.26 | 794.012 ± 0.26 | 789.214 ± 0.26 | 1109.7 ± 1.2
m1 = 0.09378 | 821.019 ± 0.26 | 816.297 ± 0.26 | 811.567 ± 0.26 | 806.826 ± 0.26 | 802.074 ± 0.26 | 797.297 ± 0.26 | 792.492 ± 0.26 | 1111.1 ± 1.2
m1 = 0.1093 | 824.484 ± 0.26 | 819.755 ± 0.26 | 815.021 ± 0.26 | 810.274 ± 0.26 | 805.504 ± 0.26 | 800.727 ± 0.26 | 795.92 ± 0.26 | 1112.6 ± 1.2
m1 = 0.1234 | 827.609 ± 0.26 | 822.874 ± 0.26 | 818.133 ± 0.26 | 813.381 ± 0.26 | 808.608 ± 0.26 | 803.819 ± 0.26 | 799.011 ± 0.26 | 1114 ± 1.2
m1 = 0.154 | 834.44 ± 0.26 | 829.692 ± 0.26 | 824.939 ± 0.26 | 820.172 ± 0.26 | 815.389 ± 0.26 | 810.594 ± 0.26 | 805.771 ± 0.26 | 1116.9 ± 1.2
m1 = 0.1834 | 841.064 ± 0.27 | 836.304 ± 0.27 | 831.54 ± 0.27 | 826.763 ± 0.27 | 821.965 ± 0.27 | 817.158 ± 0.27 | 812.326 ± 0.27 | 1120 ± 1.2
m1 = 0.2113 | 847.498 ± 0.27 | 842.723 ± 0.27 | 837.945 ± 0.27 | 833.161 ± 0.27 | 828.36 ± 0.27 | 823.539 ± 0.27 | 818.693 ± 0.27 | 1122.7 ± 1.2
m1 = 0.2388 | 853.778 ± 0.27 | 848.993 ± 0.27 | 844.206 ± 0.27 | 839.406 ± 0.27 | 834.589 ± 0.27 | 829.75 ± 0.27 | 824.9 ± 0.27 | 1125.5 ± 1.2
m1 = 0.266 | 860.252 ± 0.27 | 855.456 ± 0.27 | 850.654 ± 0.27 | 845.848 ± 0.27 | 841.026 ± 0.27 | 836.183 ± 0.27 | 831.317 ± 0.27 | 1128.2 ± 1.2
m1 = 0.2946 | 867.084 ± 0.27 | 862.275 ± 0.27 | 857.464 ± 0.27 | 852.642 ± 0.27 | 847.803 ± 0.27 | 842.939 ± 0.27 | 838.069 ± 0.27 | 1131.4 ± 1.2

[O-][Cl+3]([O-])([O-])[O-].[O-][Cl+3]([O-])([O-])[O-].[Sr+2] [strontium perchlorate] + C[S+](C)[O-]
Settings | mass density, 293.15 K [kg/m3] | mass density, 298.15 K [kg/m3] | mass density, 303.15 K [kg/m3] | mass density, 313.15 K [kg/m3] | mass density, 323.15 K [kg/m3] | mass density, 333.15 K [kg/m3] | speed of sound, 298.15 K [m/s]
m1 = 0.02541 | 1105.84 ± 0.27 | 1100.82 ± 0.27 | 1095.81 ± 0.27 | 1085.8 ± 0.27 | 1075.79 ± 0.27 | 1065.77 ± 0.27 | –
m1 = 0.03174 | 1107.23 ± 0.27 | 1102.22 ± 0.27 | 1097.22 ± 0.27 | 1087.21 ± 0.27 | 1077.21 ± 0.27 | 1067.2 ± 0.27 | 1485.7 ± 1.3
m1 = 0.04183 | 1109.48 ± 0.28 | 1104.48 ± 0.28 | 1099.47 ± 0.28 | 1089.48 ± 0.27 | 1079.49 ± 0.27 | 1069.48 ± 0.27 | 1486.1 ± 1.3
m1 = 0.05362 | 1112.12 ± 0.28 | 1107.12 ± 0.28 | 1102.12 ± 0.28 | 1092.14 ± 0.28 | 1082.16 ± 0.27 | 1072.17 ± 0.27 | 1486.7 ± 1.3
m1 = 0.06535 | 1114.75 ± 0.28 | 1109.75 ± 0.28 | 1104.76 ± 0.28 | 1094.79 ± 0.28 | 1084.82 ± 0.28 | 1074.85 ± 0.28 | 1487.3 ± 1.3
m1 = 0.08369 | 1118.88 ± 0.28 | 1113.89 ± 0.28 | 1108.92 ± 0.28 | 1098.96 ± 0.28 | 1089.01 ± 0.28 | 1079.07 ± 0.28 | 1488.2 ± 1.3
m1 = 0.1061 | 1123.96 ± 0.29 | 1118.98 ± 0.29 | 1114.01 ± 0.28 | 1104.08 ± 0.28 | 1094.14 ± 0.28 | 1084.22 ± 0.28 | 1489.3 ± 1.3
m1 = 0.1303 | 1129.53 ± 0.29 | 1124.56 ± 0.29 | 1119.6 ± 0.29 | 1109.69 ± 0.29 | 1099.79 ± 0.29 | 1089.89 ± 0.28 | 1490.4 ± 1.3
m1 = 0.1512 | 1134.32 ± 0.29 | 1129.36 ± 0.29 | 1124.42 ± 0.29 | 1114.52 ± 0.29 | 1104.65 ± 0.29 | 1094.78 ± 0.29 | 1491.5 ± 1.3
m1 = 0.1771 | 1140.37 ± 0.3 | 1135.43 ± 0.3 | 1130.49 ± 0.3 | 1120.62 ± 0.3 | 1110.77 ± 0.29 | 1100.92 ± 0.29 | 1492.6 ± 1.4
m1 = 0.1981 | 1145.33 ± 0.3 | 1140.39 ± 0.3 | 1135.46 ± 0.3 | 1125.62 ± 0.3 | 1115.78 ± 0.3 | 1105.96 ± 0.3 | 1493.7 ± 1.4
